In brackets after ≈: the same amount, converted by molar mass.
Assays:
B. cereus CH-85 = experiment: Time-kill assay; assay type: cell-based, Bacillus cereus; conditions: within 3 h, 5 × 10^5 cells per mL, 37 °C, triplicate
Procedure: The antimicrobial activity of nisin and its brominated variants was evaluated against B. cereus CH-85 using a previously described procedure.[38],[41] Briefly, an overnight culture of B. cereus was diluted 50-fold in LB medium and grown at 37 °C with aeration until reaching an OD600 of 0.5, after which the cell concentration was adjusted to 5 × 10^5 cells per mL. Bacteria were then exposed to different concentrations of nisin or brominated nisin variant in culture tubes at 37 °C and 180 rpm, with untreated bacteria serving as a negative control. At desired time points, 50 μL aliquots were taken, and 10-fold serial dilutions were plated on LB agar plates. After overnight incubation at 37 °C, colonies were counted, and colony-forming units (CFU) per milliliter were calculated. Each experiment was performed in triplicate.

[1] = Spot-on-lawn assay to test lipid II binding; assay type: cell-based, Bacillus cereus; conditions: B. cereus CH-85 lawn on LB agar; lipid II (600 μM, 2 μL per Figure 6; 0.8 mol/L, 2 μL per method) spotted at edge of halo; overnight 37 °C; preliminary results
Procedure: A 0.1% (v/v) inoculum of B. cereus CH-85 from an overnight culture was added to 1.5% (w/v) LB agar at 45 °C, and 10 mL of the mixture was poured onto a plate. The binding of the peptide to lipid II was evaluated by spotting purified lipid II ([…], 2 μL)[38],[41] at the edge of the 0.2 mg antibiotic inhibition halo. Specifically, 5 μL of the antibiotic was loaded onto the agar plate, and after drying, the lipid II solution was spotted at the edge of the inhibition halo. The plate was then incubated overnight at 37 °C.

[2] = system: Staphylococcus aureus LMG15975 (MRSA); experiment: MIC, broth microdilution; assay type: cell-based; conditions: one of two tested pathogens (S. aureus LMG15975 MRSA), WHO priority pathogen; compared with wild-type nisin
Procedure: (§1) MIC values were determined using broth microdilution according to standard guidelines.[42] The inoculum was adjusted to approximately 5 × 10^5 CFU/mL, and the MIC was defined as the lowest concentration of antimicrobial compound with no visible growth after overnight incubation at 37 °C (or at 30 °C for L. lactis strain).

Bacillus cereus CH-85 = experiment: MIC, broth microdilution; assay type: cell-based; conditions: one of two tested pathogens (B. cereus CH-85); compared with wild-type nisin
Procedure: as §1

[3] = system: Lactococcus lactis MG1363; assay type: cell-based; conditions: for fold decrease in activity: L. lactis (MG1363), from MIC values, I1W compared with nisin, analogue-labelled variants by the numbers compared with Trp variant
Procedure: as §1

[4] = system: Enterococcus faecium LMG16003 (VRE); experiment: MIC, broth microdilution; assay type: cell-based; conditions: E. faecium; from MIC values
Procedure: as §1

[5] = system: Staphylococcus aureus LMG10147; experiment: MIC, broth microdilution; assay type: cell-based; conditions: S. aureus (text: 'S. aureus' / 'one S. aureus'; by Table 2 LMG10147); from MIC values
Procedure: as §1

[6] = system: Enterococcus faecalis LMG16216 (VRE); experiment: MIC, broth microdilution; assay type: cell-based; conditions: E. faecalis; from MIC values
Procedure: as §1

Row | Molecule | effect of externally added purified lipid II on antimicrobial activity (inhibition halo) [1] | MIC [3] | fold decrease in activity [5] | fold decrease in activity [3] | also measured
1 | C=C(NC(=O)[C@@H](NC(=O)[C@H](Cc1c[nH]cn1)NC(=O)[C@@H](NC(=O)[C@H](CO)NC(=O)[C@@H]1CS[C@@H](C)[C@H]2NC(=O)[C@H](C)NC(=O)[C@H](NC(=O)[C@H](CCCCN)NC(=O)[C@H](CCSC)NC(=O)[C@H](CC(N)=O)NC(=O)[C@@H]3CS[C@@H](C)[C@@H](NC(=O)[C@H](CCCCN)NC(=O)[C@@H]4CS[C@@H](C)[C@@H](NC(=O)[C@@H]5CSC[C@@H](NC(=O)/C(=C/C)NC(=O)[C@@H](N)Cc6c[nH]c7ccc(Br)cc67)C(=O)N[C@@H]([C@@H](C)CC)C(=O)NC(=C)C(=O)N[C@@H](CC(C)C)C(=O)N5)C(=O)N5CCC[C@H]5C(=O)NCC(=O)N4)C(=O)NCC(=O)N[C@@H](C)C(=O)N[C@@H](CC(C)C)C(=O)N[C@@H](CCSC)C(=O)NCC(=O)N3)[C@H](C)SC[C@H](NC2=O)C(=O)N[C@@H](Cc2c[nH]cn2)C(=O)N1)[C@@H](C)CC)C(C)C)C(=O)N[C@@H](CCCCN)C(=O)O [nisin I1W 5BrTrp] | decreased the antimicrobial activity | 0.04 µg/mL (≈ 0.0114 µM) |  |  | killing activity (viability of exponential culture) (B. cereus CH-85; B. cereus CH-85, 2.5 μg/mL (lowest concentration tested)): only slight killing; killing activity (viability of exponential culture) (B. cereus CH-85; B. cereus CH-85, 15 μg/mL): slower bactericidal activity than did nisin; fold improvement in antimicrobial activity [2]: 2 fold; fold improvement in antimicrobial activity (Bacillus cereus CH-85): 2 fold
2 | C=C(NC(=O)[C@@H](NC(=O)[C@H](Cc1c[nH]cn1)NC(=O)[C@@H](NC(=O)[C@H](CO)NC(=O)[C@@H]1CS[C@@H](C)[C@H]2NC(=O)[C@H](C)NC(=O)[C@H](NC(=O)[C@H](CCCCN)NC(=O)[C@H](CCSC)NC(=O)[C@H](CC(N)=O)NC(=O)[C@@H]3CS[C@@H](C)[C@@H](NC(=O)[C@H](CCCCN)NC(=O)[C@@H]4CS[C@@H](C)[C@@H](NC(=O)[C@@H]5CSC[C@@H](NC(=O)/C(=C/C)NC(=O)[C@@H](N)Cc6c[nH]c7ccc(O)cc67)C(=O)N[C@@H]([C@@H](C)CC)C(=O)NC(=C)C(=O)N[C@@H](CC(C)C)C(=O)N5)C(=O)N5CCC[C@H]5C(=O)NCC(=O)N4)C(=O)NCC(=O)N[C@@H](C)C(=O)N[C@@H](CC(C)C)C(=O)N[C@@H](CCSC)C(=O)NCC(=O)N3)[C@H](C)SC[C@H](NC2=O)C(=O)N[C@@H](Cc2c[nH]cn2)C(=O)N1)[C@@H](C)CC)C(C)C)C(=O)N[C@@H](CCCCN)C(=O)O [nisin I1W 5OHTrp] |  | 0.08 µg/mL (≈ 0.0232 µM) | 2 fold | 2 fold | fold decrease in activity [4]: 2 fold
3 | C=C(NC(=O)[C@@H](NC(=O)[C@H](Cc1c[nH]cn1)NC(=O)[C@@H](NC(=O)[C@H](CO)NC(=O)[C@@H]1CS[C@@H](C)[C@H]2NC(=O)[C@H](C)NC(=O)[C@H](NC(=O)[C@H](CCCCN)NC(=O)[C@H](CCSC)NC(=O)[C@H](CC(N)=O)NC(=O)[C@@H]3CS[C@@H](C)[C@@H](NC(=O)[C@H](CCCCN)NC(=O)[C@@H]4CS[C@@H](C)[C@@H](NC(=O)[C@@H]5CSC[C@@H](NC(=O)/C(=C/C)NC(=O)[C@@H](N)Cc6c[nH]c7cc(Br)ccc67)C(=O)N[C@@H]([C@@H](C)CC)C(=O)NC(=C)C(=O)N[C@@H](CC(C)C)C(=O)N5)C(=O)N5CCC[C@H]5C(=O)NCC(=O)N4)C(=O)NCC(=O)N[C@@H](C)C(=O)N[C@@H](CC(C)C)C(=O)N[C@@H](CCSC)C(=O)NCC(=O)N3)[C@H](C)SC[C@H](NC2=O)C(=O)N[C@@H](Cc2c[nH]cn2)C(=O)N1)[C@@H](C)CC)C(C)C)C(=O)N[C@@H](CCCCN)C(=O)O [nisin I1W 6BrTrp] |  | 0.08 µg/mL (≈ 0.0228 µM) | 2 fold | 2 fold | fold decrease in activity [6]: 2 fold
4 | C=C(NC(=O)[C@@H](NC(=O)[C@H](Cc1c[nH]cn1)NC(=O)[C@@H](NC(=O)[C@H](CO)NC(=O)[C@@H]1CS[C@@H](C)[C@H]2NC(=O)[C@H](C)NC(=O)[C@H](NC(=O)[C@H](CCCCN)NC(=O)[C@H](CCSC)NC(=O)[C@H](CC(N)=O)NC(=O)[C@@H]3CS[C@@H](C)[C@@H](NC(=O)[C@H](CCCCN)NC(=O)[C@@H]4CS[C@@H](C)[C@@H](NC(=O)[C@@H]5CSC[C@@H](NC(=O)/C(=C/C)NC(=O)[C@@H](N)Cc6c[nH]c7ccccc67)C(=O)N[C@@H]([C@@H](C)CC)C(=O)NC(=C)C(=O)N[C@@H](CC(C)C)C(=O)N5)C(=O)N5CCC[C@H]5C(=O)NCC(=O)N4)C(=O)NCC(=O)N[C@@H](C)C(=O)N[C@@H](CC(C)C)C(=O)N[C@@H](CCSC)C(=O)NCC(=O)N3)[C@H](C)SC[C@H](NC2=O)C(=O)N[C@@H](Cc2c[nH]cn2)C(=O)N1)[C@@H](C)CC)C(C)C)C(=O)N[C@@H](CCCCN)C(=O)O [nisin I1W Trp] |  | 0.04 µg/mL (≈ 0.0117 µM) |  | 2 fold | 
5 | daptomycin [reference compound] | maintained its antimicrobial activity |  |  |  | 

Source: article PMC11217935, “Facile Halogenation of Antimicrobial Peptides As Demonstrated by Producing Bromotryptophan-Labeled Nisin Variants with Enhanced Antimicrobial Activity” (Journal of Natural Products, 2024)
